Key:
Assay type in all cases: in vivo, guinea pig
[1] = test system: demyelinated spinal cord lesions in chronic EAE of female Hartley guinea pigs; experiment: Spontaneous remyelination in chronic EAE guinea pigs (solochrome-R-cyanin, toluidine blue semithin sections, EM, lesion area analysis); conditions: for area of thinly myelinated axons in toluidine blue semithin sections vs saline / electron microscopy of lesioned spinal cord: day 30 of treatment
[2] = test system: experimental allergic encephalomyelitis in female Hartley guinea pigs; experiment: Chronic EAE in guinea pigs: histological analysis and pathological score of brain and spinal cord; conditions: for spinal cord histology after 20 days of treatment (day 60 post immunization) / spinal cord histology after 40 days of treatment (day 80 post immunization): SCR and H-E sections, vs saline
Procedure: Animal Sacrifice and Histological Analysis. Untreated, chronic EAE animals (n=5) were sacrificed on day 40, as well as non-EAE controls (n=5). Following each 10-day treatment interval, 5 animals from each group were sacrificed (0.25 mL sodium pentobarbital), blood samples were collected for FACS analysis (see below), and the brain and spinal cord dissected and sectioned. Three spinal sections were used, corresponding to lumbar, thoracic and cervical regions of the cord. The brain was cut into five transverse sections. The first three proximal sections were combined in one block, and the last two distal sections in another. Tissues were fixed in 10% formalin and embedded in paraffin. […] sections were stained with hematoxylin-eosin (H-E) or solochrome-R-cyanlin (SCR) and evaluated by a blinded observer in each of four categories: (1) meningeal inflammation, (2) perivascular infiltration, (3) encephalitis or (4) myelitis and demyelination (Table 6). The combined pathological score represents the total score (out of a potential 20) from all 5 CNS sections in each animal.
(§1) Statistical Analysis. Statistical analysis was performed using SigmaStat v2 software (SPSS Inc.). Clinical scores were assessed using the Mann Whitney rank sum test, while pathological scores were assessed with a two-Way ANOVA. Quantitative abnormalities were compared using Kruskal-Wallis ANOVA on ranks. In each case, p<0.05 was considered significant. A linear regression was performed on the mean cell counts in the spinal cord.

[3] = test system: α4 integrin on lymphocytes and monocytes; experiment: Chronic EAE in guinea pigs: FACS analysis of α4 integrin on circulating lymphocytes and monocytes
Procedure: FACS Analysis. On day 80 post-immunization, heparinized blood samples were collected from non-EAE animals, saline-treated animals, N-[N-(3-pyridinesulfonyl)-L-3,3-dimethyl-4-thiaprolyl]-O-[1-methylpiperazin-4-ylcarbonyl]-L-tyrosine isopropyl ester-treated animals and animals 10 days following withdrawal of N-[N-(3-pyridinesulfonyl)-L-3,3-dimethyl-4-thiaprolyl]-O-[1-methylpiperazin-4-ylcarbonyl]-L-tyrosine isopropyl ester. All samples were maintained at 4° C. for all procedures. 150 μl samples were exposed to primary antibody for 30 minutes, washed twice, and then incubated with PE-conjugated goat anti-mouse IgG Fc in the presence of 5% guinea pig serum (Beckman Coulter #PN EM055 1). Red blood cells were lysed with Becton-Dickinson lysing solution and the samples were examined on a FACScan flow cytometer (Becton Dickinson, Mountain View, Calif.) gating on different cell populations by light scatter.

[4] = test system: experimental allergic encephalomyelitis in female Hartley guinea pigs; experiment: Chronic EAE in guinea pigs: mean cell counts in spinal cord (H-E sections); conditions: for cell number in spinal cord vs saline-treated animals: after 10, 20, 30 or 40 days of therapy, p<0.001 two-way ANOVA; for mean cell count in spinal cord 10 days after removal vs continuous treatment: p<0.05 ANOVA on ranks with SNK test
Procedure: To quantify the abnormalities observed in the spinal cord, sections stained with H-E were divided into 12 representative pie-shaped areas. In each area, the number of cells within a 0.12 mm^2 field of view was counted using Sigma Scan Pro image analysis software (SPSS Inc.), and the combined mean number of cells in all 12 areas was calculated for the whole spinal cord (36 fields of view per animal). Note that as all cell nuclei were counted, the number of cells may include neurons and glial cells in addition to infiltrates.
as §1

[5] = listed as N-[N-(3-pyridinesulfonyl)-L-3,3-dimethyl-4-thiaprolyl]-O-[1-methylpiperzain-4-yl

## CC(C)OC(=O)[C@H](Cc1ccc(OC(=O)N2CCN(C)CC2)cc1)NC(=O)[C@H]1N(S(=O)(=O)c2cccnc2)CSC1(C)C [N-[N-(3-pyridinesulfonyl)-L-3,3-dimethyl-4-thiaprolyl]-O-[1-methylpiperazin-4-ylcarbonyl]-L-tyrosine isopropyl ester]
[1]; 10-40 days, time-dependent
  incidence of remyelination (lesions showing myelin pallor as percent of all lesions) vs saline: increased the incidence of remyelination
[1]; 10 days
  appearance of spinal cord lesions after 10 days of treatment (solochrome-R-cyanin): minimal evidence of myelin pallor
[1]
  appearance of spinal cord lesions after 20 days of therapy (solochrome-R-cyanin): many lesions exhibited diffuse pale blue staining
  appearance of spinal cord lesions after 40 days of therapy (solochrome-R-cyanin): presented as shadow plaques
  area of thinly myelinated axons in toluidine blue semithin sections vs saline: greatly expanded
  electron microscopy of lesioned spinal cord: multiple thin myelin layers around large caliber axons
[1]; [5]
  appearance of spinal cord lesions after 20 days of therapy (solochrome-R-cyanin): diffuse blue stain covering the plaque
  appearance of spinal cord lesions after 40 days of therapy (solochrome-R-cyanin): majority of lesions showed clear myelin pallor
  area of thinly myelinated axons in toluidine blue semithin sections vs saline: more extensive
  electron microscopy of lesioned spinal cord: multiple layers of thin myelin wrappings around large diameter axons
[1]; after 20, 30 or 40 days of therapy
  area of remyelination as percent of total lesion area: 50%
[1]; after 20, 30 or 40 days of treatment
  degree of remyelination of individual lesions: 0-100%
[1]; paralyzed guinea pigs (clinical score 2) treated up to 40 days
  animals that regained motor function: 50%
[2]; 10-40 days treatment, p<0.001 two-way ANOVA
  mean pathological score in each of four categories (meningeal inflammation, perivascular infiltration, encephalitis/myelitis, demyelination) vs saline: significant decrease
[2]
  spinal cord histology after 20 days of treatment (day 60 post immunization): much smaller areas of demyelination
  spinal cord histology after 40 days of treatment (day 80 post immunization): almost no meningeal and perivascular infiltration
[2]; [5]
  spinal cord histology after 20 days of treatment (day 60 post immunization): much smaller area of demyelination
  spinal cord histology after 40 days of treatment (day 80 post immunization): almost no meningeal and perivascular inflammation
[2]; p<0.05 Kruskal Wallis ANOVA on ranks with SNK test
  mean combined pathological score after withdrawal for 10 days vs continued treatment: significantly higher
[3]; day 80, 10 days after withdrawal
  percentage of α4 integrin bright lymphocytes in the circulation after removal: returned to saline-treated levels
[3]; day 80 post immunization
  increase of α4 integrin expression on circulating monocytes in EAE: not affected
  α4 integrin bright lymphocytes in the circulation vs saline-treated animals: large increase
[4]
  cell number in spinal cord vs saline-treated animals: significant reduction
  mean cell count in spinal cord 10 days after removal vs continuous treatment: significant increase
[4]; [5]
  cell number in spinal cord vs saline-treated animals: fewer cells
  mean cell count in spinal cord 10 days after removal vs continuous treatment: significantly increased
[4]; after 20, 30 or 40 days of treatment, p<0.05
  mean cell counts in spinal cord vs chronic control (d40) EAE animals: significantly lower
[4]; after 40 days of treatment
  mean cell count in spinal cord vs non-EAE animals: not different
[4]; slope of linear regression of mean cell counts (r^2=0.90)
  rate of cell loss in spinal cord: 8 cells/mm^2/day
